Test results published in US8871900B2, “Fibroblast growth factor (FGF) analogs and uses thereof” (University of Rochester, priority 2008, dated 2014).
Peptide text beside a SMILES is read from it.

Columns and labels:
[1] = test system: endothelial cells (adult bovine aorta endothelium); test: Growth bioassay, endothelial cells; format: cell-based; conditions: FGF-P added to culture media
Protocol: These clusters can be counted thus allowing for measurement of relative binding coefficients. To test the feasibility of binding coefficient measurement, competition experiments were performed. Free FGF-P (30 ug/ml) was added to cells for 20 min and then the biotin-FGF-P (1 μg/mL) was added. One hour later, the streptavidin-FITC was added and analyzed by flow cytometry. […] In a third test, a bioassay was performed. FGF-P was added to culture media of two types of cells: endothelial cells (adult bovine aorta endothelium) and epithelial cells (SW480, a cell line from colon).
Three preliminary experiments were carried out using FGF-P in vitro to confirm its activity. First, the biotin conjugated FGF-P was used as a tool to examine cell surface binding. AsPC-1 pancreatic cancer epithelial cells are known to have high levels of FGFR and were used for this study. ASPC-1 cells were incubated with 1 μg/ml of biotin-FGF-P and then labeled with streptavidin-FITC. The cells were then analyzed using an imaging flow cytometer (Amnis Imagestream). This device can image each cell as it passes through the laser, and it can then sort cells according to both staining and morphological characteristics. […] These clusters were counted, allowing for measurement of relative binding coefficients. […] One hour later, streptavidin-FITC was added and analyzed by flow cytometry. […]

[2] = test system: proliferating crypts of small intestine; test: Crypt assay of small intestine after sub-TBI (H&E, BrdU, villi length); format: in vivo, mouse (Balb/c, C57BL/6)
From the text: Enhanced proliferation of crypts in small intestine: The epithelium of the small intestine has a rapid turnover, renewing every 3-7 days. The stem cells are located ⅓ of the way up the […] and active mitosis can be seen above growing into the villus and below, forming the crypt. There are no definitive markers available to identify the stem cells, and thus the number of these cells in each crypt are unknown. When the bowel is irradiated, the number of crypts remains constant up to a dose just below the LD50/7. Above that dose, there is a log-linear decrease in the number of crypts, usually measured at 3.5 days. […] Data from the crypt assay can be augmented with injection of BrdU. BrdU can be given to animals at one or more times after irradiation to determine the rate of proliferation and rate of elongation of villi.
FGF-P was then repeated daily for 2 days. At 80 hr post-IR, BrdU (120 mg/kg) was injected ip and 4 hours later (about 3.5 days post-IR), the mice were sacrificed and the duodenal, jejunal and ileal segments (3-4 pieces/segment) were harvested, fixed in formalin, processed in paraffin blocks, cut in transverse sections of the full segment circumference (5 μm thick) and stained with H&E or anti-BrdU following the standard immunochemistry procedure (23). The proliferating crypts were defined as containing 10 or more adjacent chromophilic non-Paneth cells and a lumen. The circumference of a transverse cross-section of the intestine was used as a unit. The number of proliferating crypts was counted in each circumference. At least 10 circumferences were scored per mouse and 4-5 mice were used to generate each data point.
The villi length of duodenum, jejunum and ileum was measured using a customized Imaging Pro program.

BM cells [3] = test: BM cell growth in round-bottom 96 well 2 D culture (CyQUANT); format: cell-based, mouse (Balb/c); conditions: FGF-P 500 ng/ml
From the text: Survival of ARS depends on rapid reconstitution of hematopoiesis after IR-induced myelosuppression. […] However, the timing and mechanism of effect on BM stem cells is unknown. Also unclear are the number of FGFRs on hematopoietic stem cells (HSCs) and their role in reconstitution after IR. […] To characterize the effects of FGF-P on BM, the study approach was to obtain fresh BM (including both HSCs and MSCs) from Balb/c mice, and culture it under varying conditions (3 D culture or 2 D round-bottom well) in triplicate for 1-3 weeks. The BM cells were stimulated with FGF-P at different doses (as test) or with EPO, TPO, GM-CSF or native FGF2 (as a positive control). The cultures were examined using several methods including colony count, photography, CyQUANT® assay and ^3H-TdR incorporation.

BM cells [4] = test: 3H-TdR incorporation of normal and irradiated (0.5 Gy) BM cells; format: cell-based, mouse
Protocol: To determine if BM cells damaged by IR still responded to FGF-P, cells were plated in 96 round-bottom wells with serum-free ultraDoma-PF media and equally divided into two parts; one was not irradiated as control, and the other was irradiated with 0.5 Gy. They were then treated with equal amount of test agents within 1 hour post-IR. The following day, 0.2 uCi/well of ^3H-TdR was added and they were further cultured for 4 days before harvesting with a 96 well automatic harvester. […] There was no response to EPO.

platelet = test: Platelet aggregation after 4 Gy TBI; format: in vivo, mouse; conditions: day 29 after 4 Gy TBI; FGF-P right post-IR daily for 6 day; P<0.05
From the text: One of the major functions of platelet is to aggregate on the wounded site as first step to block the bleeding vessel. […] This recovery is statistically different (FIG. 18D P<0.05).

GM-CSF = test: Plasma cytokine arrays after IR; format: in vivo, mouse; conditions: post-IR
From the text: A 96 cytokine membrane array (RayBioTech, Norcross, Ga.) and a Luminex Multiple cytokine beads array (Panomics, Fremont, Calif.) were used to determine the alteration of a panel of plasma cytokines after IR and the effect of FGF-P on reversing the altered pattern. […]-P also exerts homeostatic effect to keep cytokine level towards normal balance.

ERK Pathway = test: Phosphorylation of ERK pathway; format: cell-based
irradiated human cells = test: Responsiveness of irradiated human cells; format: cell-based
[5] = test system: GI Na transport from mucosa to serosa; test: Electrolyte transport assay with 22Na flux (Ussing chamber); parameters: species or system mouse; conditions: after IR
Protocol: FGF-P improves GI function: The absorption of Na coupling with nutrition and blocking of pathogen invasion are the basic function of GI. […] To pin down the mechanism in cell/tissue level, the electrolyte transport assay with ^22Na flux was carried with Ussing chamber. […] Similarly, a “Dilution Potential” experiment was carried out and Goldman-Hodgkin-Katz (GHK) Voltage Equation used to determine relative paracellular permeability.

CC(C)C[C@H](NC(=O)[C@H](C)NC(=O)[C@@H](NC(=O)[C@H](Cc1ccc(O)cc1)NC(=O)[C@H](Cc1c[nH]c2ccccc12)NC(=O)[C@H](CO)NC(=O)[C@H](CO)NC(=O)[C@H](Cc1ccc(O)cc1)NC(=O)[C@H](CCCCN)NC(=O)[C@H](CCCNC(=N)N)NC(=O)[C@H](CO)NC(=O)[C@H](CCCNC(=N)N)NC(=O)[C@H](Cc1ccc(O)cc1)NC(=O)[C@@H](N)CS)C(C)C)C(=O)N[C@@H](CCCCN)C(=O)N[C@@H](CCCNC(=N)N)C(=O)N[C@@H](CS)C(=O)O [FGF-P, CYRSRKYSSWYVALKRC] (H-CYRSRKYSSWYVALKRC-OH; N-terminus and C-terminus assumed)
growth of endothelium [1]: stimulated the growth of both endothelium and epithelium
numbers of proliferating crypts in the bowel ([2]; 10.5 Gy sub-TBI, about 3.5 days post-IR, FGF-P 2 mg/kg im, repeated daily for 2 days): increased
crypt survival ([2]; 10.5 Gy sub-TBI, FGF-P 2 mg/kg im): approximately doubles crypt survival
proliferating crypts, BrdU staining method ([2]; 12 Gy, P<0.05): A similar result was obtained using the BrdU staining method
number of proliferating crypts ([2]; 12 Gy, duodenum, jejunum, ileum, P<0.05): higher number of proliferating crypts in duodenum, jejunum and ileum
crypt numbers in the ileum ([2]; Balb/c, 3.5 days after 12 Gy, FGF-P given after irradiation): Higher numbers of crypts
villi length ([2]; C57BL/6, 16 Gy sub-TBI, P<0.05): better preserved villi length in the duodenum and jejunum
crypt numbers ([2]; C57BL/6, doses as high as 16 Gy sub-TBI): improved crypt numbers in all sections of C57BL/6 small bowel
growth of BM cells (BM cells [3]): stimulated the growth of BM cells in a similar pattern as TPO, EPO and GM-CSF
response of irradiated BM cells (BM cells [4]; 0.5 Gy, treated within 1 hour post-IR, 3H-TdR): in the same fashion as normal BM cells
order of responsiveness (BM cells [4]; 3H-TdR incorporation, serum-free media): FGF-P (250-500 ng/ml)>native FGF2 (50 ng/ml), GM-CSF and TPO (100 ng/ml)
dose dependence of stimulatory effect (BM cells [4]; normal and 0.5 Gy irradiated BM cells): dose-dependent
platelet aggregation (platelet): recovered towards normal
plasma GM-CSF (GM-CSF): increased the IR-reduced GM-CSF
phosphorylation of ERK pathway (ERK Pathway): triggers phosphorylation of ERK Pathway
responsiveness of irradiated human cells (irradiated human cells): maintain their responsiveness to FGF-P
Na transport from mucosa to serosa [5]: reversed
